Assay in all cases: Kinase selectivity, scanMAX Kinase assay panel (DiscoverX), % control at 1 uM
What all share (type): binding

Assay [1] deals with T1, scanMAX Kinase assay panel (Homo sapiens, UniProt P51813).
T1 construct: purchased DiscoverX
T1 sequence (P51813 1-675): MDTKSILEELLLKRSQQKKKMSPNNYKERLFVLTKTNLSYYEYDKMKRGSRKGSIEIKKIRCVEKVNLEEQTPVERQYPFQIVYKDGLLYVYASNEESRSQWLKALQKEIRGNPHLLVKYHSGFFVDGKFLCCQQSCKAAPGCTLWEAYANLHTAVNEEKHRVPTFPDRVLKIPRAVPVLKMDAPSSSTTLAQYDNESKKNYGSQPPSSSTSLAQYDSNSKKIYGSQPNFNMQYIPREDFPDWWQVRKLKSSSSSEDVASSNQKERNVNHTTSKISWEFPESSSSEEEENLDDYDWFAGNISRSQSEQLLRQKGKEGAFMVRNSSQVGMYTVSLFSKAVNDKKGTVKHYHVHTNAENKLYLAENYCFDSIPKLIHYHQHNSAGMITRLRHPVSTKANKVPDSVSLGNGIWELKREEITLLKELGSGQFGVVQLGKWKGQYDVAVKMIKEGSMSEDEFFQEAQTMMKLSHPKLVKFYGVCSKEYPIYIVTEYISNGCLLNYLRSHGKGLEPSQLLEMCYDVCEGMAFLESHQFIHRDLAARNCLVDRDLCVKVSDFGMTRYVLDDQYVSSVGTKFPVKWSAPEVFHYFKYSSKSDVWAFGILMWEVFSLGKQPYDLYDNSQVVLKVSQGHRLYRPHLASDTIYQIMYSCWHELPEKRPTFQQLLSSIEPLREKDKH
Particulars: BMX; 1 uM; read-out: Percent Control (%). In short, it runs like this:
(§1)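 Compounds were tested at 1 uM in DMSO against each enzyme in the panel. Percent control was calculated as (compound − positive control)/(negative control − positive control) × 100, and a compound was scored active on a kinase when this value fell below 35.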

Assay [2] concerns the target T2, scanMAX Kinase assay panel (Homo sapiens, UniProt Q8TD08).
T2 construct: purchased DiscoverX
T2 sequence (Q8TD08 1-544): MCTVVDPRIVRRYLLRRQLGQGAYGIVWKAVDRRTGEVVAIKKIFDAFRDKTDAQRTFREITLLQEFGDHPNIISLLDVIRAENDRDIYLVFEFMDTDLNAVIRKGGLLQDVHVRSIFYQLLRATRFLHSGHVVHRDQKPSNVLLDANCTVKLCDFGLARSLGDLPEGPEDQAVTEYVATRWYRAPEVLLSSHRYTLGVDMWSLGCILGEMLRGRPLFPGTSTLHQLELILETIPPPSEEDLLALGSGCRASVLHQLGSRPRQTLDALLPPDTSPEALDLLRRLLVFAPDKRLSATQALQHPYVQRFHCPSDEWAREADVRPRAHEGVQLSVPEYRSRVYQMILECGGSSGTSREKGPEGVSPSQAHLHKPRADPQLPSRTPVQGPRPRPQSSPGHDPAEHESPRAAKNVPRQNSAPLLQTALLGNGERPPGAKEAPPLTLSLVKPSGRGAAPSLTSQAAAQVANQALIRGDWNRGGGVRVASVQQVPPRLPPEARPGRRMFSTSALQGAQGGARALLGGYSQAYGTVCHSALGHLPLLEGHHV
The settings on record: ERK8; 1 uM; read-out: Percent Control (%). In short, it runs like this: as §1

Assay [3] has as its target T3, scanMAX Kinase assay panel (Homo sapiens, UniProt P36888, D835H).
T3 construct: purchased DiscoverX
T3 sequence (P36888 27-993 D835H): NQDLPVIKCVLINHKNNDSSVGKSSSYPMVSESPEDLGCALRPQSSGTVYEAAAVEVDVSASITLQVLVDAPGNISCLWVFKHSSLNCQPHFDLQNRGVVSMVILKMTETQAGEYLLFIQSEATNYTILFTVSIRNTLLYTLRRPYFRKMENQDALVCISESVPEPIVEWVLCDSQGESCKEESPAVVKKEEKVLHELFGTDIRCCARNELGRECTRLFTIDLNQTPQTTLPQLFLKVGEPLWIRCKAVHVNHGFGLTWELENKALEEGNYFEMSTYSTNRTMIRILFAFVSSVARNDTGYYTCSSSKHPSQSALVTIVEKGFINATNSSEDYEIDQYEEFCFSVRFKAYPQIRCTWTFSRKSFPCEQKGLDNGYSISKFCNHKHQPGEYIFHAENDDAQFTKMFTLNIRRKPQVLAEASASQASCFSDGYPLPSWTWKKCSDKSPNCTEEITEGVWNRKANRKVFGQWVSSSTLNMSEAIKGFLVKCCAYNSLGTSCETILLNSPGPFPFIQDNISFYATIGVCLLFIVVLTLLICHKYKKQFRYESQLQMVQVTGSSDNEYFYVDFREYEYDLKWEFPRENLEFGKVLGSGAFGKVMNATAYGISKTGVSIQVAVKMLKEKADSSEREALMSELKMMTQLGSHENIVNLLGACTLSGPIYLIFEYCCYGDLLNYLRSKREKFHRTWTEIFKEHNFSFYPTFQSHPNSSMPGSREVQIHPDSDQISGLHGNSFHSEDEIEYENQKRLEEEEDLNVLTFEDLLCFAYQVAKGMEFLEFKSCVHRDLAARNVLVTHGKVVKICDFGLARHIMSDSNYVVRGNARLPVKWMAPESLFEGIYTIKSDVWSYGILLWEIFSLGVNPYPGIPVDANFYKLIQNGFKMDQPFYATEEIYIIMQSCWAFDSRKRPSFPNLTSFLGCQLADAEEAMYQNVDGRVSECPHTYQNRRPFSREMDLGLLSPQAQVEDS
The settings on record: FLT3 (D835H); 1 uM; read-out: Percent Control (%). In short, it runs like this: as §1

Assay [4] has as its target T4, scanMAX Kinase assay panel (Homo sapiens, UniProt P00533).
T4 construct: purchased DiscoverX
Particulars: EGFR; 1 uM; read-out: Percent Control (%). In short, it runs like this: as §1

Assay [5] addresses T5, scanMAX Kinase assay panel (Homo sapiens, UniProt Q9UM73, L1196M).
T5 construct: purchased DiscoverX
The settings on record: ALK (L1196M); 1 uM; read-out: Percent Control (%). In short, it runs like this:
as §1

The target in assay [6] is T6, scanMAX Kinase assay panel (Homo sapiens, UniProt P23458).
T6 construct: purchased DiscoverX
Particulars: 1 uM, read-out: Percent Control (%). In short, it runs like this: as §1

For assay [7], the target named is T7, scanMAX Kinase assay panel (Homo sapiens, UniProt O75914).
T7 construct: purchased DiscoverX
Particulars: PAK3; 1 uM; read-out: Percent Control (%). In short, it runs like this:
as §1

Molecules are shown by their SMILES. Like-named read-outs stand apart in the source and are kept apart here.

T6 sequence (P23458 whole entry): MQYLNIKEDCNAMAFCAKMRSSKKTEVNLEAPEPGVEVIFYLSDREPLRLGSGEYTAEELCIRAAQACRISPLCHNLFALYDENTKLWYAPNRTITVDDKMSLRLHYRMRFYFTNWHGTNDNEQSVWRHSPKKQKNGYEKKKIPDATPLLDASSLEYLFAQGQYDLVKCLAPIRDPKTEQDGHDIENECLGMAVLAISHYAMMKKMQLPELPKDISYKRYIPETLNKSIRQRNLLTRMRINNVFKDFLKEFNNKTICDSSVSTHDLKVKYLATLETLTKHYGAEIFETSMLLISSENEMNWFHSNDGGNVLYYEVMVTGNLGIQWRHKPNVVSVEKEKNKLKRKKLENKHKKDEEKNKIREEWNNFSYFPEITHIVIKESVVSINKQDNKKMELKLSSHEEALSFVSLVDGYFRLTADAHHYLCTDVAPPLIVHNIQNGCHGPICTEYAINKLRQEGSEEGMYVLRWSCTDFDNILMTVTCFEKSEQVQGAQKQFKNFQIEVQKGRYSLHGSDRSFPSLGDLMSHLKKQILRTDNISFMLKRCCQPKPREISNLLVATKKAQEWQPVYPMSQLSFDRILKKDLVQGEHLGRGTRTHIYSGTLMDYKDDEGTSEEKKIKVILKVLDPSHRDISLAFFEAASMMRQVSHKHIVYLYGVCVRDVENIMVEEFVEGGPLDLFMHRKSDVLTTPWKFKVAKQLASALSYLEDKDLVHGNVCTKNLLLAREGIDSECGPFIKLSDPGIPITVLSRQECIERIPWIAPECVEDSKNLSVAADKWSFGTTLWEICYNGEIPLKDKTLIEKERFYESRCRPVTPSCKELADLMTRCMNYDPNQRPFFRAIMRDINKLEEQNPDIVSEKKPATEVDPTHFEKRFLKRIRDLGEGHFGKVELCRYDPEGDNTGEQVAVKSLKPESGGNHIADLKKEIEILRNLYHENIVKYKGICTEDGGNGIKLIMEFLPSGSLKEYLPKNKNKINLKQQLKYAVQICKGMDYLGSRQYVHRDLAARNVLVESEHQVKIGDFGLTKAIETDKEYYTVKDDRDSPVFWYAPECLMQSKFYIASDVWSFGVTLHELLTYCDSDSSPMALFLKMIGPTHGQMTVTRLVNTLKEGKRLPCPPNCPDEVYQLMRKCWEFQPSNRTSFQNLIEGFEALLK
T4 sequence (P00533 25-1210): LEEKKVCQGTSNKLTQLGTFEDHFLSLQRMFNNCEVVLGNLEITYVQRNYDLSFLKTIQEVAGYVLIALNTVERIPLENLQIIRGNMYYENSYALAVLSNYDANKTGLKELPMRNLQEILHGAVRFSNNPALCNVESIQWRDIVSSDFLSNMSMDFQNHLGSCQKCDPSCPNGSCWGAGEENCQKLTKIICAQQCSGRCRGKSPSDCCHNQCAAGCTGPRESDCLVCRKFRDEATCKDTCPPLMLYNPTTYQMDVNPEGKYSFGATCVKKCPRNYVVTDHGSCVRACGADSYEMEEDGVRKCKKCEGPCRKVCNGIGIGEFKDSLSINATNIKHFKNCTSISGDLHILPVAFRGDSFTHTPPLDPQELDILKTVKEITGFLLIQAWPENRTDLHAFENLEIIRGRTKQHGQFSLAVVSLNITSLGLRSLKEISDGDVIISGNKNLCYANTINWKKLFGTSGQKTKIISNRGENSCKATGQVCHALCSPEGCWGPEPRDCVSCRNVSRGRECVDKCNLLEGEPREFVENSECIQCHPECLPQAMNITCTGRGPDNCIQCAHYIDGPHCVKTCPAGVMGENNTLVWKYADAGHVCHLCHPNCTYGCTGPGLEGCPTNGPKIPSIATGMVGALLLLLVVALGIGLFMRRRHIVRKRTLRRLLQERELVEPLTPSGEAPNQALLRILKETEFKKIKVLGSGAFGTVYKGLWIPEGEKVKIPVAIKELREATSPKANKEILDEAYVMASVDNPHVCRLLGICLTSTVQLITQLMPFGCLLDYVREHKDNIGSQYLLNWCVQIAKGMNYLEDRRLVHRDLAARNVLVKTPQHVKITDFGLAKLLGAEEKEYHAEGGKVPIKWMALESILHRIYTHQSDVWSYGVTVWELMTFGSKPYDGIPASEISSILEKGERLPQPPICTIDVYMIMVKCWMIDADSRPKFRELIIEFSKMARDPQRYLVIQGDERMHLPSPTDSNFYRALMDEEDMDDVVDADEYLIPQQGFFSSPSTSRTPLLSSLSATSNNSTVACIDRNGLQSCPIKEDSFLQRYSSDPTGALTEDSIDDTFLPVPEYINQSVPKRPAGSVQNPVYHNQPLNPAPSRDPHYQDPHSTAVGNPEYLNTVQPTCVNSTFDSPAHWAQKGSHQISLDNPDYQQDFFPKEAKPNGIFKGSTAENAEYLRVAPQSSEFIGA
T7 sequence (O75914 whole entry): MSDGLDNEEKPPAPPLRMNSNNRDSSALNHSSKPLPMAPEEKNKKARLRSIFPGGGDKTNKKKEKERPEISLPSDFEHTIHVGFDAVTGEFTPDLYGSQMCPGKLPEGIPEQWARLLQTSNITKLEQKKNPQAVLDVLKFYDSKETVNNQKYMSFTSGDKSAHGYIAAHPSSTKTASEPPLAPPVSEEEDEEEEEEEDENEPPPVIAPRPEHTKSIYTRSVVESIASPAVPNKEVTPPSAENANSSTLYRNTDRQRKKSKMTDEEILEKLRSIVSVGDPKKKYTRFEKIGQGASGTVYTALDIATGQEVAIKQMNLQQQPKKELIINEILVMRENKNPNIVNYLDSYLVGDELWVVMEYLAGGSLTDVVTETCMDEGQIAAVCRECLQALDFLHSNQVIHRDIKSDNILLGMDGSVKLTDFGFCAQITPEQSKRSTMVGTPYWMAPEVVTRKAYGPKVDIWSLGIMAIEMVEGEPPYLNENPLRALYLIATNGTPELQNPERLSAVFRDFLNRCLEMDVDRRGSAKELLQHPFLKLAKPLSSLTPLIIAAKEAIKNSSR
T5 sequence (Q9UM73 19-1620 L1196M): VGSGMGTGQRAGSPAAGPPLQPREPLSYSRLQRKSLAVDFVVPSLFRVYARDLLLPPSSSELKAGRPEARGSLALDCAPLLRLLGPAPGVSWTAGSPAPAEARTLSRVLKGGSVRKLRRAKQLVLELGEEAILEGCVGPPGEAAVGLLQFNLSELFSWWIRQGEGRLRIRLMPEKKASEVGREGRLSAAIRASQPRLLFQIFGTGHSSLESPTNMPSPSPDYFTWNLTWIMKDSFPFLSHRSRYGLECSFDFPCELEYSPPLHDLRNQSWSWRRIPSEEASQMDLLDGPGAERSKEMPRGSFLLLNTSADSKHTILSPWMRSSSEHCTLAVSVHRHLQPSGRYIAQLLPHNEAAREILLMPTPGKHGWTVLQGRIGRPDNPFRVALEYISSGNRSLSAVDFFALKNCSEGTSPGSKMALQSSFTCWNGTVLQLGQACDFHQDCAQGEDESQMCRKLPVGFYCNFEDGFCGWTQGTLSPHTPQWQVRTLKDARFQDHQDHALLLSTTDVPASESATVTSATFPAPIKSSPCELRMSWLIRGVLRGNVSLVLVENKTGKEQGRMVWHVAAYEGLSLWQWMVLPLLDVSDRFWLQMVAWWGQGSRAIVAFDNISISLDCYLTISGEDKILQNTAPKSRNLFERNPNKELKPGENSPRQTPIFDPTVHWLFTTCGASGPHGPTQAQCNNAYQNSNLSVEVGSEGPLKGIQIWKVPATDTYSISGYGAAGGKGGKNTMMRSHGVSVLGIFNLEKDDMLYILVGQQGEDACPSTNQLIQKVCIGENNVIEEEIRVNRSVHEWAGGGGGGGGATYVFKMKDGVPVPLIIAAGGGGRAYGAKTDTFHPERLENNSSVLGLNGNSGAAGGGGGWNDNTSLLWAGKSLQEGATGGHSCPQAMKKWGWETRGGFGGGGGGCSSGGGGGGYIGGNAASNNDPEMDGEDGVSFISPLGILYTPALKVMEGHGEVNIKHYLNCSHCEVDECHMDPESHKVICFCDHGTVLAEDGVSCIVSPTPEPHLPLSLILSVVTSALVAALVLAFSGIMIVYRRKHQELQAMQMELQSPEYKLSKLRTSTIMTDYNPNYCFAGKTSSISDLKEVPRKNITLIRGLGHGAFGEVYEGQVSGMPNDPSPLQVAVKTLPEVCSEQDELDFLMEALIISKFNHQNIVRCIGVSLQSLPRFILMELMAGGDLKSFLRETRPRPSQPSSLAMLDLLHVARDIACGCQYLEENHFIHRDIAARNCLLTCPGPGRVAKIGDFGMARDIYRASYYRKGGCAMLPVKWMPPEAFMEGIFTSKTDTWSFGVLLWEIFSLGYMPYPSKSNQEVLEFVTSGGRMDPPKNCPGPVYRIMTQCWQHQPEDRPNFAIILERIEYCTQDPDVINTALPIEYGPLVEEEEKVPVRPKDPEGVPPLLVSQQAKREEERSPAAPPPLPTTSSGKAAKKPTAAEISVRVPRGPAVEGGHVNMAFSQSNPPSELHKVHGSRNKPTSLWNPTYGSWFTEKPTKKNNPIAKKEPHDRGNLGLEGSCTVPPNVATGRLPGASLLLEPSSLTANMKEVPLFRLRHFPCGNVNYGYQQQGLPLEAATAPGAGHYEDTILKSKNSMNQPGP

Turning to `Cc1ccc(C(=O)Nc2ccc(CN3CCN(C)CC3)c(C(F)(F)F)c2)cc1C#Cc1cnc2c(Nc3cnn(C)c3)cccn12` [Example 1, 4-methyl-3-((8-((1-methyl-1H-pyrazol-4-yl)amino)imidazo[1,2-a]pyridin-3-yl)ethynyl)-N-(4-((4-methylpiperazin-1-yl)methyl)-3-(trifluoromethyl)phenyl)benzamide], the remaining binding at 1 µM in assay [1] came to 3%; in assay [2], 29%; in assay [3], 1%; in assay [4], 3%; in assay [5], 29%; in assay [6] (JAK1 (JH1domain-catalytic)), 17%. Further, the remaining binding at 1 µM in assay [6] (JAK1 (JH2domain-pseudokinase)) stood at 70%; in assay [7], 85%.

With `Cc1ccc(NC(=O)C2(C(=O)Nc3ccc(F)cc3)CC2)cc1C#Cc1cnc2c(Nc3cnn(C(C)C)c3)cccn12` [Example 78], the remaining binding at 1 µM in assay [1] worked out at 96%; in assay [2], 87%; in assay [3] it was 95%; in assay [4], 85%; in assay [5], 100%; in assay [6] (JAK1 (JH1domain-catalytic)), 92%. Besides, the remaining binding at 1 µM in assay [6] (JAK1 (JH2domain-pseudokinase)) came out at 100%; in assay [7], 83%.

Regarding `Cc1cn(-c2cc(NC(=O)c3ccc(C)c(C#Cc4cnc5c(Nc6cnn(C)c6)cccn45)c3)cc(C(F)(F)F)c2)cn1` [Example 12, 4-methyl-N-(3-(4-methyl-1H-imidazol-1-yl)-5-(trifluoromethyl)phenyl)-3-((8-((1-methyl-1H-pyrazol-4-yl)amino)imidazo[1,2-a]pyridin-3-yl)ethynyl)benzamide], the remaining binding at 1 µM in assay [1] was determined as 9%; in assay [2] it was 71%; in assay [3], 10%; in assay [4] it was 28%; in assay [5], 100%; in assay [6] (JAK1 (JH1domain-catalytic)), 78%. The figures for the remaining binding at 1 µM in assay [6] (JAK1 (JH2domain-pseudokinase)) and in assay [7] were 44% and 95%, respectively.

These data come from patent US10870647B2, “Imidazopyridine derivative, method for preparing same, and pharmaceutical composition containing same as active ingredient for preventing or treating cancer” (DAEGU-GYEONGBUK MEDICAL INNOVATION FOUNDATION, priority 2016, dated 2020).
